Series [1] has as its system oedema induced by TPA (phorbol 12-myristate-13-acetate) on mouse ear. As to the kind of experiment: Acute inflammation on mouse ear: oedema induced by TPA. Conditions: 6 hours after application. It counts as in vivo. How it is done: The anti-inflammatory activities of the compound of formula (I) in racemic form, of the S enantiomer of the compound of formula (I), of metronidazole and of ibuprofen were measured in an in vivo test performed on a mouse model.
The model used is the model of mouse ear inflammation induced by a single application of TPA (phorbol 12-myristate-13-acetate). Female Balb/c ByJlco mice are used.
The oedema is induced by applying to the ear 20 μl of 0.01% TPA dissolved in ethanol.
The racemic compound of formula (I) is dissolved, at the desired concentration, in the 0.01% TPA solution and thus applied to a group of mice at the same time as the TPA.
The S enantiomer of the compound of formula (I) is dissolved, at the desired concentration, in the 0.01% TPA solution and thus applied to another group of mice at the same time as the TPA.
Similarly, ibuprofen (racemic) is dissolved, at the desired concentration, in the 0.01% TPA solution and is applied to another group of mice at the same time as the TPA. Finally, metronidazole is dissolved, at the desired concentration, in the 0.01% TPA solution and is applied to another group of mice at the same time as the TPA.
The oedema is evaluated, 6 hours after application of the test product, by measuring the thickness of the ear using an Oditest® micrometer.
The TPA-induced oedema is evaluated relative to the ethanol vehicle group. […]

The nature of series [2]: Stability on keratinocyte cultures. Particulars: human neonatal keratinocyte culture, 2 μM, degradation kinetics over 24 hours, LC/MS/MS; read-out: half-life time (t1/2) (converted). It counts as in vitro ADME, human. How it is done:
(§1) The stability on keratinocyte cultures is evaluated using human neonatal keratinocytes (Cell'N Tech) cultured in a 75 cm^2 flask and detached at 90-100% of confluence with vegetable trypsin (trypLE GIBCO). The compound of formula (I) was tested at 2 μM in the medium CNT-057 (Cell'N Tech) supplemented with 0.1% pluronic acid in 24-well plates. The final DMSO concentration is 0.1%. Degradation kinetics are performed with a Tecan EVO robot over 24 hours. The samples taken are then assayed by LC/MS/MS (Micromass) in comparison with a calibration range of the test product, prepared under the same conditions as the samples (⅓ culture medium and ⅔ methanol). The chromatographic conditions are optimized for each product. An assay of the appearance of metronidazole is also performed using these same samples.

Series [3] relates to oedema induced by arachidonic acid (AA) on mouse ear. The series is described as follows: Acute inflammation on mouse ear: arachidonic acid-induced oedema. It counts as in vivo. Conditions: 1 hour after application. How it is done: The anti-inflammatory activities of the compound of formula (I) in racemic form, of the S enantiomer of the compound of formula (I), of metronidazole and of ibuprofen were measured in an in vivo test performed on a mouse model. This model consists in inducing inflammation of the mouse ear with a single application of arachidonic acid (AA). Female Balb/c ByJlco mice are used. The oedema is induced by applying to the mouse's ear 20 μL of AA dissolved to 4% in a 1/1 THF/methanol mixture. The anti-inflammatory activities of the S enantiomer of the compound of formula (I), of the compound of formula (I) in racemic form, of metronidazole and of ibuprofen were evaluated after topical application onto the inner face of the mouse's ear of 20 μL of a solution of the compound in a 1/1 THF/methanol mixture containing 4% AA.
Solutions containing 0.01%; 0.03%; 0.1%; 0.3%; 1% and 2% of the test compound are thus prepared. The percentages correspond to the weight of the test compound per volume of solution. The oedema is evaluated, 1 hour after application, by measuring the thickness of the ear using an Oditest® micrometer. The oedema induced by AA alone is evaluated, 1 hour after application, by measuring the thickness of the ear using an Oditest® micrometer. It is evaluated relative to a group comprising only the vehicle (1/1 THF/methanol). […]

Series [4] deals with human neonatal keratinocytes. As to the kind of experiment: Stability on keratinocyte cultures. It counts as in vitro ADME. Particulars: human neonatal keratinocyte cultures, comparative esters. How it is done: as §1

Regarding `Cc1ncc([N+](=O)[O-])n1CCOC(=O)C(C)c1ccc(CC(C)C)cc1` (racemic) [racemic compound of formula (I), 2-(2-methyl-5-nitroimidazol-1-yl)ethyl 2-(4-isobutylphenyl)propionate], the “IC50 (concentration at which 50% inhibition of the oedema induced by TPA alone is observed)” value in series [1] (topical with 0.01% TPA) is 0.28%. Also, in series [2], the half-life at 2 μM was 3 h.
For the compound `Cc1ncc([N+](=O)[O-])n1CCOC(=O)[C@@H](C)c1ccc(CC(C)C)cc1` [S enantiomer of the compound of formula (I), 2-(2-methyl-5-nitroimidazol-1-yl)ethyl (S)-2-(4-isobutylphenyl)propionate], the “inhibition of the oedema induced by AA alone” value in series [3] (dose of 1% (w/v) topical on mouse ear) is listed as 49%. For the same compound, the half-life at 2 μM in series [2] was 20 h.
In the case of `Cc1ncc([N+](=O)[O-])n1CCOC(=O)c1cc(-c2ccc(F)cc2F)ccc1O` [metronidazole ester with diflunisal], the “hydrolysis / stability on keratinocyte cultures” value (from here on “hydrolysis / stability”) in series [4] is given as “do not become hydrolysed”.
The same measure, in the same setting: in the case of `COc1ccc2c(c1)c(CC(=O)OCCn1c([N+](=O)[O-])cnc1C)c(C)n2C(=O)c1ccc(Cl)cc1` [metronidazole ester with indomethacin] it was “do not become hydrolysed”.
In the case of `Cc1ncc([N+](=O)[O-])n1CCOC(=O)C1CCn2c(C(=O)c3ccccc3)ccc21` (stereo not shown) [metronidazole ester with ketorolac], the “hydrolysis / stability” value in series [4] was “do not become hydrolysed”.
Consider `Cc1ncc([N+](=O)[O-])n1CCOC(=O)c1cccnc1Nc1cccc(C(F)(F)F)c1` [metronidazole ester with niflumic acid], for which the “hydrolysis / stability” value in series [4] was “do not become hydrolysed”.
Take `Cc1ncc([N+](=O)[O-])n1CCO` [metronidazole]: the anti-inflammatory activity result is listed as “no anti-inflammatory activity” in series [1] (topical) and “no anti-inflammatory activity” in series [3] (AA-induced mouse ear oedema, topical).

Source of the values: US20130158090A1, “METRONIDAZOLE ESTERS FOR TREATING ROSACEA” (GALDERMA RESEARCH & DEVELOPMENT, priority 2010, published 2013).
